Molecular target: T1, MLLT1 (Homo sapiens, UniProt Q03111)
T1 construct: host or cells: MV4-11
T1 sequence (Q03111 1-559): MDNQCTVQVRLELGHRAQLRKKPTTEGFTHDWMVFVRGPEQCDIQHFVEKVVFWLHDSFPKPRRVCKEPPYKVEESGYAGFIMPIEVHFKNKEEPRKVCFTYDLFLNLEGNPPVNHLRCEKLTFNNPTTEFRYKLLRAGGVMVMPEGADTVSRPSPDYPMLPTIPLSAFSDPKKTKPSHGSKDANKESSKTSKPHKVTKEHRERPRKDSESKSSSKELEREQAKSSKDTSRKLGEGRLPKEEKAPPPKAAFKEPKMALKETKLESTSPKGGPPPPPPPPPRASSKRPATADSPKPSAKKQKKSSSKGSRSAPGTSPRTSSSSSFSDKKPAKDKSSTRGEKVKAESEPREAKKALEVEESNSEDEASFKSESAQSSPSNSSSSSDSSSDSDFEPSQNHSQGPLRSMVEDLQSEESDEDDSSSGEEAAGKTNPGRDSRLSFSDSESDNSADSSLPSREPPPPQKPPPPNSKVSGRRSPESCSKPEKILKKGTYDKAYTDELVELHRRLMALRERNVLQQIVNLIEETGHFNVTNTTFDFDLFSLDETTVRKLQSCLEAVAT
Assay: MLLT1 degradation assay in MV4-11 cells (JESS chemiluminescent detection), three concentrations, 24 h
Format: cell-based
Details: with respect to DMSO control
Procedure: MLLT1 degradation efficacy of compounds were tested in an automated chemiluminescent detection system (JESS, Cat #004-650). […] 10 mM DMSO stocks were prepared, and cells were treated with three concentrations of test compounds viz. 1000, 100 and 10 nM at a final DMSO concentration of 0.1% and incubated for 24 h at 37° C., 5% CO2. […] Post run, data were analysed using “Compass for SW” software for chemiluminescent detection. The peak area for each band was used for the calculation of MLLT1 degradation with respect to DMSO control. Data is shown as “MLLT1% degradation”.

MLLT1% Degradation @ 0.1 μM	MLLT1% Degradation @ 1 μM	SMILES	MLLT1% Degradation @ 0.01 μM
A (Category A: A ≥ 75% degradation)	A (Category A: A ≥ 75% degradation)	C[C@@H]1CN(CC2CCN(c3cccc4c3CN(C3CCC(=O)NC3=O)C4=O)CC2)CCN1c1ccc(C(=O)Nc2cc3[nH]c([C@H]4CCCN4C)cc3cn2)cc1 (relative stereo) [Example 134, 4-((R)-4-((1-(2-((rel-R)-2,6-dioxopiperidin-3-yl)-1-oxoisoindolin-4-yl)piperidin-4-yl)methyl)-2-methylpiperazin-1-yl)-N-(2-((R)-1-methylpyrrolidin-2-yl)-1H-pyrrolo[3,2-c]pyridin-6-yl)benzamide]	B (Category B: 50% ≤ B < 75% degradation)
A (Category A: A ≥ 75% degradation)	A (Category A: A ≥ 75% degradation)	CN1CCC[C@@H]1c1cc2cnc(NC(=O)c3ccc(CCCC4CCN(c5cccc6c5CN(C5CCC(=O)NC5=O)C6=O)CC4)cc3)cc2[nH]1 (stereo in doubt) [Example 78, 4-(3-(1-(2-((rel-R)-2,6-dioxopiperidin-3-yl)-1-oxoisoindolin-4-yl)piperidin-4-yl)propyl)-N-(2-((R)-1-methylpyrrolidin-2-yl)-1H-pyrrolo[3,2-c]pyridin-6-yl)benzamide]	B (Category B: 50% ≤ B < 75% degradation)
A (Category A: A ≥ 75% degradation)	A (Category A: A ≥ 75% degradation)	CN1CCC[C@@H]1c1cc2cnc(NC(=O)c3ccc(OCCC4CCN(c5cccc6c5CN(C5CCC(=O)NC5=O)C6=O)CC4)cc3)cc2[nH]1 (stereo in doubt) [Example 80, 4-(2-(1-(2-((rel-S)-2,6-dioxopiperidin-3-yl)-1-oxoisoindolin-4-yl)piperidin-4-yl)ethoxy)-N-(2-((R)-1-methylpyrrolidin-2-yl)-1H-pyrrolo[3,2-c]pyridin-6-yl)benzamide]	A (Category A: A ≥ 75% degradation)
A (Category A: A ≥ 75% degradation)	A (Category A: A ≥ 75% degradation)	CN1CCC[C@@H]1c1cc2cnc(NC(=O)c3ccc(OCCC4CCN(c5cccc6c5CN(C5CCC(=O)NC5=O)C6=O)CC4)cc3)cc2[nH]1 (stereo in doubt) [Example 81, 4-(2-(1-(2-((rel-R)-2,6-dioxopiperidin-3-yl)-1-oxoisoindolin-4-yl)piperidin-4-yl)ethoxy)-N-(2-((R)-1-methylpyrrolidin-2-yl)-1H-pyrrolo[3,2-c]pyridin-6-yl)benzamide]	A (Category A: A ≥ 75% degradation)
A (Category A: A ≥ 75% degradation)	A (Category A: A ≥ 75% degradation)	CN1CCC[C@@H]1c1cc2cnc(NC(=O)c3ccc(OC4CCN(CC5CCN(c6cccc7c6CN(C6CCC(=O)NC6=O)C7=O)CC5)CC4)cc3)cc2[nH]1 (stereo in doubt) [Example 123, 4-((1-((1-(2-((rel-R)-2,6-dioxopiperidin-3-yl)-1-oxoisoindolin-4-yl)piperidin-4-yl)methyl)piperidin-4-yl)oxy)-N-(2-((R)-1-methylpyrrolidin-2-yl)-1H-pyrrolo[3,2-c]pyridin-6-yl)benzamide]	A (Category A: A ≥ 75% degradation)
A (Category A: A ≥ 75% degradation)	A (Category A: A ≥ 75% degradation)	CN1CCC[C@@H]1c1[nH]c2cc(NC(=O)c3ccc(OCCC4CCN(c5cccc6c5CN(C5CCC(=O)NC5=O)C6=O)CC4)cc3)ncc2c1Cl (stereo in doubt) [Example 162, N-(3-chloro-2-((R)-1-methylpyrrolidin-2-yl)-1H-pyrrolo[3,2-c]pyridin-6-yl)-4-(2-(1-(2-((rel-R)-2,6-dioxopiperidin-3-yl)-1-oxoisoindolin-4-yl)piperidin-4-yl)ethoxy)benzamide]	A (Category A: A ≥ 75% degradation)
A (Category A: A ≥ 75% degradation)	A (Category A: A ≥ 75% degradation)	CN1CCC[C@@H]1c1cc2cnc(NC(=O)c3ccc(OCCC4CCN(c5cccc6c5CN(C5CCC(=O)NC5=O)C6=O)CC4)cc3F)cc2[nH]1 (stereo in doubt) [Example 173, 4-(2-(1-(2-((rel-R)-2,6-dioxopiperidin-3-yl)-1-oxoisoindolin-4-yl)piperidin-4-yl)ethoxy)-2-fluoro-N-(2-((R)-1-methylpyrrolidin-2-yl)-1H-pyrrolo[3,2-c]pyridin-6-yl)benzamide]	B (Category B: 50% ≤ B < 75% degradation)
A (Category A: A ≥ 75% degradation)	A (Category A: A ≥ 75% degradation)	CN1CCC[C@@H]1c1cc2cnc(NC(=O)c3ccc(N4CCN(CC5CCN(c6cccc7c6C(=O)N(C6CCC(=O)NC6=O)C7=O)CC5)CC4)nc3)cc2[nH]1 (stereo partly drawn) [Example 5, 6-(4-((1-(2-(2,6-dioxopiperidin-3-yl)-1,3-dioxoisoindolin-4-yl)piperidin-4-yl)methyl)piperazin-1-yl)-N-(2-((R)-1-methylpyrrolidin-2-yl)-1H-pyrrolo[3,2-c]pyridin-6-yl)nicotinamide]	B (Category B: 50% ≤ B < 75% degradation)
A (Category A: A ≥ 75% degradation)	A (Category A: A ≥ 75% degradation)	CN1CCC[C@@H]1c1cc2cnc(NC(=O)c3ccc(N4CCC(OCC5CCN(c6cccc7c6C(=O)N(C6CCC(=O)NC6=O)C7=O)CC5)CC4)nc3)cc2[nH]1 (stereo partly drawn) [Example 18, 6-(4-((1-(2-(2,6-dioxopiperidin-3-yl)-1,3-dioxoisoindolin-4-yl)piperidin-4-yl)methoxy)piperidin-1-yl)-N-(2-((R)-1-methylpyrrolidin-2-yl)-1H-pyrrolo[3,2-c]pyridin-6-yl)nicotinamide]	B (Category B: 50% ≤ B < 75% degradation)

SMILES	MLLT1% Degradation @ 0.1 μM	MLLT1% Degradation @ 1 μM	MLLT1% Degradation @ 0.01 μM
CN1CCC[C@@H]1c1cc2cnc(NC(=O)N3CCC(CCC#Cc4cccc5c4CN(C4CCC(=O)NC4=O)C5=O)CC3)cc2[nH]1 (stereo partly drawn) [Example 1, 4-(4-(2-(2,6-dioxopiperidin-3-yl)-1-oxoisoindolin-4-yl)but-3-yn-1-yl)-N-(2-((R)-1-methylpyrrolidin-2-yl)-1H-pyrrolo[3,2-c]pyridin-6-yl)piperidine-1-carboxamide]	C (Category C: 25% ≤ C < 50% degradation)	C (Category C: 25% ≤ C < 50% degradation)	C (Category C: 25% ≤ C < 50% degradation)
CN1CCC[C@@H]1c1cc2cnc(NC(=O)c3ccc(CCCCC#Cc4cccc5c4CN(C4CCC(=O)NC4=O)C5=O)nc3)cc2[nH]1 (stereo partly drawn) [Example 10, 6-(6-(2-(2,6-dioxopiperidin-3-yl)-1-oxoisoindolin-4-yl)hex-5-yn-1-yl)-N-(2-((R)-1-methylpyrrolidin-2-yl)-1H-pyrrolo[3,2-c]pyridin-6-yl) nicotinamide]	A (Category A: A ≥ 75% degradation)	B (Category B: 50% ≤ B < 75% degradation)	A (Category A: A ≥ 75% degradation)
CN1CCC[C@@H]1c1cc2cnc(NC(=O)c3ccc(CCCC#Cc4ccc(C(=O)N[C@H]5CCC(=O)NC5=O)nc4)cc3)cc2[nH]1 [Example 11, N—((S)-2,6-dioxopiperidin-3-yl)-5-(5-(4-((2-((R)-1-methylpyrrolidin-2-yl)-1H-pyrrolo[3,2-c]pyridin-6-yl)carbamoyl)phenyl)pent-1-yn-1-yl)picolinamide]	C (Category C: 25% ≤ C < 50% degradation)	B (Category B: 50% ≤ B < 75% degradation)	D (Category D: D < 25% degradation)
CN1CCC[C@@H]1c1cc2cnc(NC(=O)c3ccc(C4CCN(c5cccc6c5C(=O)N(C5CCC(=O)NC5=O)C6=O)CC4)cc3)cc2[nH]1 (stereo partly drawn) [Example 15, 4-(1-(2-(2,6-dioxopiperidin-3-yl)-1,3-dioxoisoindolin-4-yl)piperidin-4-yl)-N-(2-((R)-1-methylpyrrolidin-2-yl)-1H-pyrrolo[3,2-c]pyridin-6-yl)benzamide]	A (Category A: A ≥ 75% degradation)	B (Category B: 50% ≤ B < 75% degradation)	B (Category B: 50% ≤ B < 75% degradation)
CN1CCC[C@@H]1c1cc2cnc(NC(=O)c3ccc(OCC#Cc4cccc5c4CN(C4CCC(=O)NC4=O)C5=O)c(Cl)c3)cc2[nH]1 (stereo partly drawn) [Example 23, 3-chloro-4-((3-(2-(2,6-dioxopiperidin-3-yl)-1-oxoisoindolin-4-yl)prop-2-yn-1-yl)oxy)-N-(2-((R)-1-methylpyrrolidin-2-yl)-1H-pyrrolo[3,2-c]pyridin-6-yl)benzamide]	C (Category C: 25% ≤ C < 50% degradation)	C (Category C: 25% ≤ C < 50% degradation)	C (Category C: 25% ≤ C < 50% degradation)
